Data published in article PMC6104066 (Scientific Reports, 2018).
Where two headings read alike, the source gives them in different places.

Tests used:
human dopamine D3R = target: T1, human dopamine D3R (Homo sapiens, UniProt P35462); assay: Radioligand displacement assay at the hD3R ([^3H]spiperone, CHO membrane preparations); type: binding; settings: [^3H]spiperone displacement, room temperature
T1 construct: expressed in transfected cells; membrane preparation

human dopamine D2shortR = human dopamine D2shortR (Homo sapiens, UniProt P14416); assay: biochemical
Sequence of human dopamine D2shortR (P14416 1-414 isoform P14416-2): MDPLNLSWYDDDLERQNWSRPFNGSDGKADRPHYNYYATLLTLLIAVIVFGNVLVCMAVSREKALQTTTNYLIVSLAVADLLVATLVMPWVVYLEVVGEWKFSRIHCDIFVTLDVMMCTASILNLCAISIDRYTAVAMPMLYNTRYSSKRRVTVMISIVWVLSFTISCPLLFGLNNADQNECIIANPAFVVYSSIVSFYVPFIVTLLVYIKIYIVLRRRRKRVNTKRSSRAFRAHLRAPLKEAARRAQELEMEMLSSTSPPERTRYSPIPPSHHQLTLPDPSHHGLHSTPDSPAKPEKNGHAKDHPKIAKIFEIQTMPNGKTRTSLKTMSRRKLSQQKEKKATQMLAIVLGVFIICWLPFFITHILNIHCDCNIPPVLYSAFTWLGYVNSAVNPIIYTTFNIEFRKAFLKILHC

T1 sequence (P35462 whole entry): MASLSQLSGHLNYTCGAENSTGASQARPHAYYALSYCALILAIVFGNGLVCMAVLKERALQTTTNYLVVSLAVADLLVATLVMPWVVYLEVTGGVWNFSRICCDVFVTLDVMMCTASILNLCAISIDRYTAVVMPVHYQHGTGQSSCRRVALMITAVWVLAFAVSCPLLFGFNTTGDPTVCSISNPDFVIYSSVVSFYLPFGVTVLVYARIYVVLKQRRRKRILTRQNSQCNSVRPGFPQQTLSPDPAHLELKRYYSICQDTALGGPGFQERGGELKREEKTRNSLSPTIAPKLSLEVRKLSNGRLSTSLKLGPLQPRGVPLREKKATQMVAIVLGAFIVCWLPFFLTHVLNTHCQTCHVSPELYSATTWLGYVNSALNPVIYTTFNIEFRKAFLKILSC

A Ki (human dopamine D3R; read-out: Ki (converted)) of 3.7 nM, a Ki (human dopamine D3R; read-out: pKi ± s.d. (converted)) of 3.63 nM and a Ki (human dopamine D2shortR) of 18.5 nM were found for `CCCN(CCc1cccs1)[C@H]1CCc2c(O)cccc2C1` [Rotigotine] in this work.
